Values after ≈ are worked out from the molar mass of the structure shown. Values belong to the molecule of their own block, whether it stands above or below them.
Columns and labels:
Rat Femur = test: Immobilization Dependent Bone Loss in the Rat Femur (ovariectomized rats, unilateral sciatic neurotomy); type: in vivo; settings: 20 mg/kg, i.p., 5×/week for 4 weeks
Procedure: This assay was performed according to the procedure described by Kharode Y.P., Kowal D., O'Rourke S., and Hayward M., "Effect of Time and Pharmacologic Intervention on Bone Mineralization," J. Bone Min. Res. 2, Supp.1. (1987).
Bone mass was determined in the contralateral femora from ovariectomized rats which had been subjected to unilateral sciatic nerve severance. After sciatic neurotomy, the rats were treated with test compound for 2 to 4 weeks. The rats were euthanized, the femora were excised, debrided of soft tissue, and then dehydrated. After drying, the mass of each pair of femora was determined by weighing. The % change in bone mass is calculated using the formula: [formula]

Rat Limb Bone = test: 45Ca Release from Rat Limb Bone (inhibition of bone resorption); type: cell-based, rat (Sprague-Dawley CD); settings: for minimal effective concentration: concentration required to inhibit bone resorption, from regression analysis, read-out: MIC, Inhibition of Bone Resorption (45Ca release)
Procedure: Timed pregnant Sprague-Dawley CD rats (Charles River) are administered 100 uCi^45 CaCl2 (NEN calcium-45 NEZ-013) in 100 μl of 0.9% saline, subcutaneously, on day 18 of gestation. The rats are sacrificed the following day by asphyxiation. […] The modified BGJb media is obtained without salts glucose or bicarbonate and is supplemented before use with 0.1 mM MgCl2, 1.25 mM CaCl2, 5.3 mM KCl, 0.7 mM MgSO4, 130 mM NaCl, 1.0 mM NaH2 PO4, 1 g/1 glucose, 50 mg/1 Na acetate and 100 U/ml penicillin G. The medium is sterilized by passage through a […] filter (Nalge). Under a dissecting microscope, the bones are gently cleaned of adherent tissue and the cartilagenous ends removed. Step (2): Incubation and Drug Treatment The midshafts are placed, individually, on 3×3 mm squares of filter paper (Gelman […] filters; […] pore size) which rest on stainless steel screens in wells of 24-well culture plates containing 0.5 ml of preincubation medium. The preincubation medium is brought to 37 deg. C. prior to transfer of bones. The preincubation medium consists of the modified BGJb medium (with salts and glucose as above), pH 7.3, containing 29 mM NaHCO3. After incubation for 18-24 hours at 37° C. in 5% CO2, the bones are transferred on their screen/filter paper supports to new plates containing, in a total volume of 0.5 ml/well at 37° C., the test compound diluted in preincubation medium supplemented with 15% heat inactivated horse serum (Gibco No. 230-6050), pH 7.3, with or without a bone resorption stimulating agent (parathyroid hormone [PTH]). For compounds that require nonaqueous solvents, dilutions are made from the appropriate stock solution with medium. In these instances, basal and bone resorption stimulated controls exposed to an equivalent concentration of the vehicle are included. An additional group of bones that have been subjected to boiling for 1 hour are used to establish background, non cell mediated, exchange of ^45 Ca. The right ulna and radius from each fetus are used. Both bones are subjected to the same treatment and each treatment group consists of bones from 4 or more fetuses. Treatments are randomly assigned using a preclinical statistics program (PS-ALLOC). After a 48 hour incubation at 37° C. in 5% CO2, the bones are removed from the medium and extracted in 0.5 ml of 0.1N HCl for 1 or more days. Duplicate 150 μl aliquots of the incubation medium and the bone extract are analyzed for ^45 Ca radioactivity in 5 ml of liquid scintillation cocktail. The percentage of bone ^45 Ca released into the medium is determined as follows: [formula] Results are normally expressed as the ratio of the percent ^45 Ca release of the experimental group verses the appropriate vehicle control. […] A regression analysis is calculated for dose response and the concentration of test compound required to inhibit bone resorption (^45 Ca release) is reported (Table II).

[1] = cited from earlier work
[2] = Rattus norvegicus, 48 hour incubation at 37° C.

Molecule: O=C1C=C(Oc2ccc(-c3ccccc3)cc2)C(O)O1 (stereo not drawn) [Example 1, 4-([1,1'-Biphenyl]-4-yloxy)-5-hydroxy-2(5H)-furanone]
% Change in Bone Mass (Rat Femur): 4.8 ± 0.6%
minimal effective concentration (Rat Limb Bone; [2]): 10 µg/mL

Molecule: CCCCCCCCc1ccc(OC2=CC(=O)OC2O)cc1 (stereo not drawn) [Example 3, 4-(4-Octylphenoxy)-5-hydroxy-2(5H)-furanone]
minimal effective concentration (Rat Limb Bone; [2]): 10 µg/mL

Molecule: O=C1C=C(Oc2ccc(C3CCCC3)cc2)C(O)O1 (stereo not drawn) [Example 4, 4-(4-Cyclopentylphenoxy)-5-hydroxy-2(5H)-furanone]
minimal effective concentration (Rat Limb Bone; [2]): 1 µg/mL

IC50 (Rat Limb Bone; Rattus norvegicus, 48 hour incubation at 37° C., printed in the MIC (μg/mL) column): 3.5 µg/mL (≈ 13.5 µM)
Molecule: O=C1C=C(Oc2ccc(C(F)(F)F)cc2)C(O)O1 (stereo not drawn) [Example 5, 4-(4-Trifluoromethylphenoxy)-5-hydroxy-2(5H)-furanone]

Molecule: O=C1C=C(Oc2ccc(Sc3ccccc3)cc2)C(O)O1 (stereo not drawn) [Example 7, 4-[4-thiophenyl-1-phenoxy]-5-hydroxy-2(5H)-furanone]
minimal effective concentration (Rat Limb Bone; [2]): 10 µg/mL

Molecule: [F-].[Na+] [sodium fluoride]
bone growth quality ([1]; in vivo): irregular
fracture incidence ([1]; in vivo): does not appear to be significantly lowered
mitogenic activity for osteoblasts ([1]; in vivo): mitogenic for osteoblasts
bone density increase ([1]; may result in increase up to 8-10% a year): 8-10 % a year

Molecule: Estrogen
side effects ([1]; in vivo): increased risk of certain types of cancers

B1: PTH: bone resorption stimulating agent (parathyroid hormone [PTH]) (protein, UniProt P01270 32-115, looked up)
Parathyroid hormone: SVSEIQLMHNLGKHLNSMERVEWLRKKLQDVHNFVALGAPLAPRDAGSQRPRKKEDNVLVESHEKSLGEADKADVNVLTKAKSQ
ratio of the percent 45Ca release vs vehicle control (basal = 1.00) (Rat Limb Bone; PTH 10^-7 M, bone resorption agent, 'commonly'): 1.3-2.0

— patent US5336687A, “Inhibition of bone loss by 4-aryloxy-5-hydroxy-2(5H)-furanones” (American Home Products Corporation, priority 1993, dated 1994)
